Data on 24 compounds can be found in patent US9637496B2, “Substituted 7-azabicycles and their use as orexin receptor modulators” (priority 2013, dated 2017).

The target in assay [1] is rat orexin 1 receptor (Rattus norvegicus (Rat), UniProt P56718). Briefly: Rat orexin 1 receptor radioligand binding (competitive binding, HEK293 membranes).
The target in assay [2] is human orexin 1 receptor (Homo sapiens (Human), UniProt O43613). Description: Human orexin 1 receptor radioligand binding (competitive binding, CHO membranes).
Assay [3] addresses human orexin 2 receptor (Homo sapiens (Human), UniProt O43614). Briefly: Human orexin 2 receptor radioligand binding ([3H]-EMPA competition, HEK293 membranes).
The mark [4] stands for this setting: human orexin 2 receptor, Table 2, averages from between 2-20 runs, read-out: hOX2 Ki.
The mark [5] stands for this setting: Table 2, further testing, averages from 2-20 runs, read-out: hOX2 Ki.
Setting [6] is: rat orexin 1 receptor, Table 2, averages from between 2-20 runs, read-out: rOX1 Ki.
[7] abbreviates: human orexin 1 receptor, Table 2, averages from between 2-20 runs, read-out: hOX1 Ki.
The mark [8] stands for this setting: Table 2, further testing, averages from 2-20 runs, read-out: rOX1 Ki.
The mark [9] stands for this setting: Table 2, further testing, averages from 2-20 runs, read-out: hOX1 Ki.

Like-named read-outs stand apart in the source and are kept apart here.

Sequence of human orexin 2 receptor (O43614 whole entry): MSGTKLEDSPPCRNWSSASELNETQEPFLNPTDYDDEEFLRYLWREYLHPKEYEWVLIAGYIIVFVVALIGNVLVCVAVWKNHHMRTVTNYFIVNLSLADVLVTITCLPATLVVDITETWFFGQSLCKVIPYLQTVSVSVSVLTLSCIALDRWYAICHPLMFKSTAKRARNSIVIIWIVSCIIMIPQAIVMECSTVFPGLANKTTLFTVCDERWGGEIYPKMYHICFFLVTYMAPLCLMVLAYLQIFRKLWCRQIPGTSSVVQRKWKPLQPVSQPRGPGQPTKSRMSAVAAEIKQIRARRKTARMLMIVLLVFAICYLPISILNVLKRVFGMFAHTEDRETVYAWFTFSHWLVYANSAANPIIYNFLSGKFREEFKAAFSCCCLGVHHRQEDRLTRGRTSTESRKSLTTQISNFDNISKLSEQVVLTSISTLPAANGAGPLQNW
Sequence of human orexin 1 receptor (O43613 whole entry): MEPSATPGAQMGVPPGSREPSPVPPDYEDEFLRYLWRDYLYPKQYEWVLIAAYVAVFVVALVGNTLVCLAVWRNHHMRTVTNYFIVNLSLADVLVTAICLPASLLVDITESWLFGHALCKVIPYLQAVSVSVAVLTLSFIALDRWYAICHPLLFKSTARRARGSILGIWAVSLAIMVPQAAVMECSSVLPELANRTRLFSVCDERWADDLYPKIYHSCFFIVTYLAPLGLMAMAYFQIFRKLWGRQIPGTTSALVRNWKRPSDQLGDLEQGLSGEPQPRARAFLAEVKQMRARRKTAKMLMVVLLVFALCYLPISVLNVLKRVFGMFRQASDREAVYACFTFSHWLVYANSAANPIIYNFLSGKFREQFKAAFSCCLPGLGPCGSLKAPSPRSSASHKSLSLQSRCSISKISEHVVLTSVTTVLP
Sequence of rat orexin 1 receptor (P56718 whole entry): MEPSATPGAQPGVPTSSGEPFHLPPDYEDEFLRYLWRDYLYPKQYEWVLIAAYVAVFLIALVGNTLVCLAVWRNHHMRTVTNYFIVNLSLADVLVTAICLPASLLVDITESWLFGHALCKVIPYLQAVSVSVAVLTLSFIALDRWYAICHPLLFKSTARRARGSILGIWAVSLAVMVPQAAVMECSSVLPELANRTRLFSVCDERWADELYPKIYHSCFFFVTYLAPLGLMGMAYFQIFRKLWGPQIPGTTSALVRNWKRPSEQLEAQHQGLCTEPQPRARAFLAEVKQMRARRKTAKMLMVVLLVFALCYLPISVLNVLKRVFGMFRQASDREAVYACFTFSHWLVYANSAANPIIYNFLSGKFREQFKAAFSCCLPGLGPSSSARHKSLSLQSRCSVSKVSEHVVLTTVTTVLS

Consider `O=C(c1cccc(F)c1-c1ccccn1)N1[C@@H]2CC[C@H]1[C@H](Nc1ccc(C(F)(F)F)cn1)C2` [Example 320, (3-fluoro-2-(pyridin-2-yl)phenyl)((1S,2R,4R)-2-((5-(trifluoromethyl)pyridin-2-yl)amino)-7-azabicyclo[2.2.1]heptan-7-yl)methanone], for which the Ki (in general, the dissociation constant of the complex between target and ligand, obtained from inhibition or displacement) in assay [1] (read-out: rOX1 Ki) is 37 nM; in assay [2] (read-out: hOX1 Ki) it was 14 nM; in assay [3] (setting [4]), 260 nM.
On the same counts, the results for `Cc1cnc(C(=O)N2[C@@H]3CC[C@H]2[C@H](Nc2ccc(C(F)(F)F)cn2)C3)c(-c2ncccn2)c1` [Example 380, (5-methyl-3-(pyrimidin-2-yl)pyridin-2-yl)((1S,2R,4R)-2-((5-(trifluoromethyl)pyridin-2-yl)amino)-7-azabicyclo[2.2.1]heptan-7-yl)methanone] are 28 nM, 48 nM and 8500 nM.
With `O=C(c1cccc(F)c1-c1ncc(F)cn1)N1[C@@H]2CC[C@H]1[C@H](Nc1ncc(C(F)(F)F)cc1F)C2` [Example 463, (3-fluoro-2-(5-fluoropyrimidin-2-yl)phenyl)((1S,2R,4R)-2-((3-fluoro-5-(trifluoromethyl)pyridin-2-yl)amino)-7-azabicyclo[2.2.1]heptan-7-yl)methanone], the Ki worked out at 53 nM in assay [1] (read-out: rOX1 Ki), 50 nM in assay [2] (read-out: hOX1 Ki) and 1900 nM in assay [3] (setting [5]).
Take `O=C(c1cccc(F)c1-n1nccn1)N1[C@@H]2CC[C@H]1[C@H](Nc1ccc(C(F)F)cn1)C2` [Example 388, ((1S,2R,4R)-2-((5-(difluoromethyl)pyridin-2-yl)amino)-7-azabicyclo[2.2.1]heptan-7-yl)(3-fluoro-2-(2H-1,2,3-triazol-2-yl)phenyl)methanone]: the figures for the Ki in assay [1] (setting [6]), in assay [2] (setting [7]) and in assay [3] (setting [4]) were 130 nM, 118 nM and 1100 nM, respectively.
In the case of `O=C(c1cccc(Cl)c1-c1ncccn1)N1[C@@H]2CC[C@H]1[C@H](Nc1ccc(C(F)(F)F)cn1)C2` [Example 376, (3-chloro-2-(pyrimidin-2-yl)phenyl)((1S,2R,4R)-2-((5-(trifluoromethyl)pyridin-2-yl)amino)-7-azabicyclo[2.2.1]heptan-7-yl)methanone], the Ki in assay [1] (read-out: rOX1 Ki) came to 10 nM; in assay [2] (read-out: hOX1 Ki), 4 nM; in assay [3] (setting [4]), 110 nM.
Consider `O=C(c1cccc(F)c1-c1ncccn1)N1C2CCC1C(Nc1ccc(Br)cn1)C2` [Example 303, ((1S,2R,4R)-2-((5-bromopyridin-2-yl)amino)-7-azabicyclo[2.2.]heptan-7-yl)(3-fluoro-2-(pyrimidin-2-yl)phenyl)methanone], for which the values for the Ki in assay [1] (read-out: rOX1 Ki), in assay [2] (read-out: hOX1 Ki) and in assay [3] (setting [4]) were 22 nM, 16 nM and 1300 nM, respectively.
`Cc1cccc(C(=O)N2C3CCC2C(Oc2ccc(C(F)(F)F)cn2)C3)c1-c1ncco1` (racemic) [Example 435]: the Ki in assay [1] was 50 nM; in assay [2], 29 nM; in assay [3] it was 520 nM.
Turning to `O=C(c1cccc(F)c1-c1ncco1)N1[C@@H]2CC[C@H]1[C@H](Nc1ncc(C(F)(F)F)cc1F)C2` [Example 454, (3-fluoro-2-(oxazol-2-yl)phenyl)((1S,2R,4R)-2-((3-fluoro-5-(trifluoromethyl)pyridin-2-yl)amino)-7-azabicyclo[2.2.1]heptan-7-yl)methanone], the Ki was 18 nM in assay [1] (setting [8]), 23 nM in assay [2] (setting [9]) and 590 nM in assay [3] (setting [5]).
As to `Cc1cnc(-n2nccn2)c(C(=O)N2[C@@H]3CC[C@H]2[C@H](Nc2cnc(C(F)(F)F)cn2)C3)c1` [Example 401, (5-methyl-2-(2H-1,2,3-triazol-2-yl)pyridin-3-yl)((1S,2R,4R)-2-((5-(trifluoromethyl)pyrazin-2-yl)amino)-7-azabicyclo[2.2.1]heptan-7-yl)methanone], the results for the Ki in assay [1] (setting [6]), in assay [2] (setting [7]) and in assay [3] (setting [4]) were 196 nM, 394 nM and over 10000 nM, respectively.
On the same counts, the results for `O=C(c1cccc(F)c1-n1nccn1)N1C2CCC1C(Oc1ccc(Br)cn1)C2` (racemic) [Example 440] are 118 nM, 100 nM and 6000 nM.
Consider `O=C(c1cc(F)ccc1-c1ncccn1)N1[C@@H]2CC[C@H]1[C@H](Nc1ncc(C(F)(F)F)cn1)C2` [Example 415, (5-fluoro-2-(pyrimidin-2-yl)phenyl)((1S,2R,4R)-2-((5-(trifluoromethyl)pyrimidin-2-yl)amino)-7-azabicyclo[2.2.1]heptan-7-yl)methanone], for which the Ki was 102 nM in assay [1] (setting [6]), 70 nM in assay [2] (read-out: hOX1 Ki) and 2100 nM in assay [3] (read-out: hOX2 Ki).
As for `O=C(c1cc(F)ccc1-c1ncco1)N1[C@@H]2CC[C@H]1[C@H](Nc1cnc(C(F)(F)F)cn1)C2` [Example 410, (5-fluoro-2-(oxazol-2-yl)phenyl)((1S,2R,4R)-2-((5-(trifluoromethyl)pyrazin-2-yl)amino)-7-azabicyclo[2.2.1]heptan-7-yl)methanone], the Ki was 67 nM in assay [1] (read-out: rOX1 Ki), 90 nM in assay [2] (read-out: hOX1 Ki) and 1000 nM in assay [3] (setting [4]).
As for `O=C(c1ccccc1-c1ncccn1)N1[C@@H]2CC[C@H]1[C@H](Nc1cnc(C(F)(F)F)cn1)C2` [Example 400, (2-(pyrimidin-2-yl)phenyl)((1S,2R,4R)-2-((5-(trifluoromethyl)pyrazin-2-yl)amino)-7-azabicyclo[2.2.1]heptan-7-yl)methanone], the Ki in assay [1] (read-out: rOX1 Ki) worked out at 27 nM; in assay [2] (read-out: hOX1 Ki) it was 19 nM; in assay [3] (setting [4]) it was 571 nM.
With `O=C(c1ccccc1-c1ncccn1)N1C2CCC1C(Oc1ccc(C(F)(F)F)cn1)C2` (racemic) [Example 432], the values for the Ki in assay [1] (setting [6]), in assay [2] (setting [7]) and in assay [3] (setting [4]) were 147 nM, 307 nM and 6000 nM, respectively.
In the case of `O=C(c1ncccc1-c1ncccn1)N1[C@@H]2CC[C@H]1[C@H](Nc1cnc(C(F)(F)F)cn1)C2` [Example 406, (3-(pyrimidin-2-yl)pyridin-2-yl)((1S,2R,4R)-2-((5-(trifluoromethyl)pyrazin-2-yl)amino)-7-azabicyclo[2.2.1]heptan-7-yl)methanone], the inhibition constant (Ki) turned out to be 59 nM in assay [1] (setting [6]), 44 nM in assay [2] (setting [7]) and 972 nM in assay [3] (setting [4]).
On the same counts, the results for `Cc1cccc(C(=O)N2[C@@H]3CC[C@H]2[C@H](Nc2ccc(Br)cn2)C3)c1-c1ncccn1` [Example 304, ((1S,2R,4R)-2-((5-bromopyridin-2-yl)amino)-7-azabicyclo[2.2.1]heptan-7-yl)(3-methyl-2-(pyrimidin-2-yl)phenyl)methanone] are 12 nM, 16 nM and 455 nM.
In the case of `Cc1cccc(C(=O)N2[C@@H]3CC[C@H]2[C@H](Nc2ncc(Br)cn2)C3)c1-c1ncccn1` [Example 316, ((1S,2R,4R)-2-((5-bromopyrimidin-2-yl)amino)-7-azabicyclo[2.2.1]heptan-7-yl)(3-methyl-2-(pyrimidin-2-yl)phenyl)methanone], the Ki in assay [1] (setting [6]) came to 20 nM; in assay [2] (read-out: hOX1 Ki), 59 nM; in assay [3] (setting [4]), 796 nM.
Turning to `O=C(c1ccccc1-c1ncc(F)cn1)N1[C@@H]2CC[C@H]1[C@H](Nc1cnc(C(F)(F)F)cn1)C2` [Example 397, (2-(5-fluoropyrimidin-2-yl)phenyl)((1S,2R,4R)-2-((5-(trifluoromethyl)pyrazin-2-yl)amino)-7-azabicyclo[2.2.1]heptan-7-yl)methanone], the inhibitory constant (Ki) was 50 nM in assay [1] (read-out: rOX1 Ki), 24 nM in assay [2] (read-out: hOX1 Ki) and 985 nM in assay [3] (setting [4]).
Take `Cc1cnc(-n2nccn2)c(C(=O)N2[C@@H]3CC[C@H]2[C@H](Nc2ncc(C(F)(F)F)cc2F)C3)c1` [Example 453, ((1S,2R,4R)-2-((3-fluoro-5-(trifluoromethyl)pyridin-2-yl)amino)-7-azabicyclo[2.2.1]heptan-7-yl)(5-methyl-2-(2H-1,2,3-triazol-2-yl)pyridin-3-yl)methanone]: the figures for the Ki in assay [1] (setting [8]), in assay [2] (setting [9]) and in assay [3] (setting [5]) were 210 nM, 305 nM and over 10000 nM, respectively.
In the case of `O=C(c1cccc(F)c1-c1ncccn1)N1C2CCC1C(Oc1ccc(C(F)(F)F)cn1)C2` (racemic) [Example 429], the Ki in assay [1] amounted to 77 nM; in assay [2], 120 nM; in assay [3] (setting [4]), 6300 nM.
Turning to `O=C(c1ccc(F)cc1-c1ncccn1)N1[C@@H]2CC[C@H]1[C@H](Nc1ncc(C(F)(F)F)cn1)C2` [Example 414, (4-fluoro-2-(pyrimidin-2-yl)phenyl)((1S,2R,4R)-2-((5-(trifluoromethyl)pyrimidin-2-yl)amino)-7-azabicyclo[2.2.1]heptan-7-yl)methanone], the Ki is 160 nM in assay [1] (setting [6]), 81 nM in assay [2] (setting [7]) and 5800 nM in assay [3] (setting [4]).
In the case of `[2H]C1(Nc2cnc(C(F)(F)F)cn2)CC2CCC1N2C(=O)c1cccc(F)c1-c1ncccn1` [Example 395, (3-fluoro-2-(pyrimidin-2-yl)phenyl)((1S,2R,4R)-(2-^2H)-((5-(trifluoromethyl)pyrazin-2-yl)amino)-7-azabicyclo[2.2.1]heptan-7-yl)methanone], the Ki in assay [1] was found to be 17 nM; in assay [2], 14 nM; in assay [3], 899 nM.
Regarding `O=C(c1ccccc1-c1ccccc1)N1[C@@H]2CC[C@H]1[C@H](Nc1cnc(C(F)(F)F)cn1)C2` [Example 407, [1,1′-biphenyl]-2-yl((1S,2R,4R)-2-((5-(trifluoromethyl)pyrazin-2-yl)amino)-7-azabicyclo[2.2.1]heptan-7-yl)methanone], the figures for the Ki in assay [1] (read-out: rOX1 Ki), in assay [2] (read-out: hOX1 Ki) and in assay [3] (setting [4]) were 18 nM, 17 nM and 104 nM, respectively.
For the compound `O=C(c1cc(F)ccc1-n1nccn1)N1[C@@H]2CC[C@H]1[C@H](Nc1ccc(C(F)(F)F)cn1)C2` [Example 369, (5-fluoro-2-(2H-1,2,3-triazol-2-yl)phenyl)((1S,2R,4R)-2-((5-(trifluoromethyl)pyridin-2-yl)amino)-7-azabicyclo[2.2.1]heptan-7-yl)methanone], the Ki came out at 67 nM in assay [1] (setting [6]), 45 nM in assay [2] (setting [7]) and 629 nM in assay [3] (setting [4]).
